Measured values as given in paper PMC11054269, “Synergistic Biomedical Potential and Molecular Docking Analyses of Coumarin–Triazole Hybrids as Tyrosinase Inhibitors: Design, Synthesis, In Vitro Profiling, and In Silico Studies” (Pharmaceuticals, 2024).
Values joined by “and” are separate entries in the source; they are usually repeats but may differ in a detail not shown here. Identical values can stand only once. Like-named read-outs stand apart in the source and are kept apart here.

Tests used:
tyrosinase = assay: spectrophotometric tyrosinase inhibition assay with L-DOPA as substrate; type: biochemical, Bacillus subtilis NCTC 10400; conditions: for %Age Inhibition: test concentration not given
Procedure: The synthesized coumarin–triazole hybrids were subjected to spectrophotometric assay for tyrosinase by employing […]. The tyrosine enzyme was extracted from Bacillus subtilis NCTC 10400. The anti-tyrosinase potential of all the coumarin–triazole hybrids was screened by using L-DOPA (levodopa) as the substrate. All the coumarin derivatives were dissolved in DMSO. […] The coumarin derivatives along with the tyrosine enzyme (0.5 mg/mL) were pre-incubated for 10 min in buffer at 25 °C. Pre-incubation of tyrosinase and coumarin derivative was followed by the addition of levodopa (0.5 mM), and the reaction was monitored by absorbance measurement at 475 nm. The IC50 values were calculated by interpolation of the dose–response curves. The following formula was applied to calculate the percentage inhibition of tyrosinase:%age Inhibition = (B − S/B) × 100 where S and B are the absorbance values for the sample and blank, respectively.

[1] = L-DOPA 0.5 mM, pH 6.8, 25 °C, means ± SEs (n = 3), read-out: IC50
[2] = L-DOPA substrate, unit inferred, read-out: IC50 (unit inferred)

SMILES	IC50 (tyrosinase; [1])	%Age Inhibition (tyrosinase; L-DOPA 0.5 mM, pH 6.8, 25 °C)	IC50 (tyrosinase; [2]) [µM]	melting point [°C]
Cc1cc(=O)oc2cc(OC(=O)CSc3nnc(-c4cc5ccccc5o4)n3-c3ccccc3)ccc12 [Compound 17a, 4-Methyl-2-oxo-2H-chromen-7-yl-2-((5-(benzofuran-2-yl)-4-phenyl-4H-1,2,4-triazol-3-yl)thio)acetate]	8.13 ± 0.13 µM	12.023 ± 0.21% and 12.02 ± 0.21%	8.14 ± 0.13	152
COc1cccc2cc(-c3nnc(SCC(=O)Oc4ccc5c(C)cc(=O)oc5c4)n3-c3ccccc3)oc12 [Compound 17b, 4-Methyl-2-oxo-2H-chromen-7-yl-2-((5-(7-methoxybenzofuran-2-yl)-4-phenyl-4H-1,2,4-triazol-3-yl)thio)acetate]	14.1 ± 0.17 µM	6.3009 ± 0.14% and 6.30 ± 0.14%	14.1 ± 0.17	140
COc1ccc(-n2c(SCC(=O)Oc3ccc4c(C)cc(=O)oc4c3)nnc2-c2cc3cccc(OC)c3o2)cc1 [Compound 17c, 4-Methyl-2-oxo-2H-chromen-7-yl-2-((5-(7-methoxybenzofuran-2-yl)-4-(4-methoxyphenyl)-4H-1,2,4-triazol-3-yl)thio)acetate]	13 ± 0.32 µM	5.11 ± 0.15%	13 ± 0.32	137
Cc1cc(=O)oc2cc(OC(=O)CSc3nnc(-c4cc5cc(Br)ccc5o4)n3-c3ccccc3)ccc12 [Compound 17d, 4-Methyl-2-oxo-2H-chromen-7-yl-2-((5-(5-bromobenzofuran-2-yl)-4-phenyl-4H-1,2,4-triazol-3-yl)thio)acetate]	5.89 ± 0.09 µM	23.097 ± 0.13% and 23.09 ± 0.13%	5.89 ± 0.09	232
COc1ccc(-n2c(SCC(=O)Oc3ccc4c(C)cc(=O)oc4c3)nnc2-c2cc3cc(Br)ccc3o2)cc1 [Compound 17e, 4-Methyl-2-oxo-2H-chromen-7-yl-2-((5-(5-bromobenzofuran-2-yl)-4-(4-methoxyphenyl)-4H-1,2,4-triazol-3-yl)thio)acetate]	0.339 µM and 0.33 µM	30.85 ± 0.15%	0.339 ± 0.08	220
Cc1cc(=O)oc2cc(OC(=O)CSc3nnc(-c4cc5cc(Cl)ccc5o4)n3-c3ccccc3)ccc12 [Compound 17f, 4-Methyl-2-oxo-2H-chromen-7-yl-2-((5-(5-chlorobenzofuran-2-yl)-4-phenyl-4H-1,2,4-triazol-3-yl)thio)acetate]	3.15 µM and 3.14 µM	36.134 ± 0.21% and 36.13 ± 0.21%	3.15 ± 0.23	226

Now from value to compound:

IC50 (tyrosinase; [1])	%Age Inhibition (tyrosinase; L-DOPA 0.5 mM, pH 6.8, 25 °C)	IC50 (tyrosinase; [2]) [µM]	melting point [°C]	SMILES
3.98 µM	31.0609 ± 0.19% and 31.060 ± 0.19%	3.98 ± 0.12	200	COc1ccc(-n2c(SCC(=O)Oc3ccc4c(C)cc(=O)oc4c3)nnc2-c2cc3cc(Cl)ccc3o2)cc1 [Compound 17g, 4-Methyl-2-oxo-2H-chromen-7-yl2-((5-(5-chlorobenzofuran-2-yl)-4-(4-methoxyphenyl)-4H-1,2,4-triazol-3-yl)thio)acetate]
5.13 ± 0.05 µM	30.62 ± 0.33%	–	–	Cc1cc(=O)oc2cc(OC(=O)CSc3nnc(-c4cc5c(ccc6ccccc65)o4)n3-c3ccccc3)ccc12 [Compound 17h, 4-Methyl-2-oxo-2H-chromen-7-yl-2-((5-(naphtho[2,1-b]furan-2-yl)-4-phenyl-4H-1,2,4-triazol-3-yl)thio)acetate]
–	6.79 ± 0.58%	–	–	O=c1cc(CO)occ1O [Kojic acid, reference compound]
